Read-outs that look alike come from different tables or passages of the source.
Key:
[1] = cited from earlier work
[2] = DI water, room temperature overnight
Description: All samples were prepared with DI water, pH 5.5. Controls were prepared similarly without the use of modulators. All test samples were mixed overnight at room temperature. The samples were then filtered and analyzed using HPLC-UV method.

Q: With `CN(C)CC(c1ccc(O)cc1)C1(O)CCCCC1` (racemic) [desvenlafaxine] as the compound, how does the “adverse events and discontinuations” value ([1]; at higher doses (above 50 mg/day)) read?
A: more frequent

Q: And the “efficacy in clinical studies” value ([1]; dose of 50-400 mg/day)?
A: effective

Q: What about the “additional benefit in clinical studies” value ([1]; doses higher than 50 mg/day) of the same compound?
A: no additional benefit

Q: For `CN(C)CC(c1ccc(O)cc1)C1(O)CCCCC1.Cl.O` (single isomer, unassigned; (-)) [(−)-O-desmethyl venlafaxine HCl monohydrate], which solubility (at about pH 6.0) is on record?
A: less than 100 mg/mL

Q: What about the solubility (higher pH, close to the physiological pH) of the same compound?
A: less than 1 mg/mL

Q: And the solubility (low pH, for example pH 1.0)?
A: a few hundred

Q: What about the “API Solubility” value ([2]; control without modulators, sample pH 5.2-5.5) of the same compound?
A: 611 mg/mL

Q: What about the “API Solubility” value ([2]; with Alginic acid, sample pH 2.4-2.7) of the same compound?
A: 568 mg/mL

Q: What about the “API Solubility” value ([2]; with Ascorbic acid, sample pH 2.7-3.0) of the same compound?
A: 597 mg/mL

Q: And the “API Solubility” value ([2]; with Beta cyclodextrin, sample pH 5.2-5.5)?
A: 502 mg/mL

Q: And the “API Solubility” value ([2]; with Carbopol 941, sample pH 3.2-3.5)?
A: 587 mg/mL

Q: What about the “API Solubility” value ([2]; with Citric acid, sample pH 2.1-2.4) of the same compound?
A: 612 mg/mL

Q: And the “API Solubility” value ([2]; with Eudragit L100, sample pH 3.2-3.5)?
A: 547 mg/mL

Q: What about the “API Solubility” value ([2]; with Fumaric acid, sample pH <1.8) of the same compound?
A: 639 mg/mL

Q: And the “API Solubility” value ([2]; with Gelucire 44/14, sample pH 5.2-5.5)?
A: 521 mg/mL

Q: And the “API Solubility” value ([2]; with HPMCP, sample pH 2.7-3.0)?
A: 572 mg/mL

Q: What about the “API Solubility” value ([2]; with Hydroxypropyl beta cyclodextrin, sample pH 5.5-5.7) of the same compound?
A: 589 mg/mL

Q: And the “API Solubility” value ([2]; with Klucel LF, sample pH 5.5)?
A: 536 mg/mL

Q: What about the “API Solubility” value ([2]; with Kollidone 25, sample pH 5.2-5.5) of the same compound?
A: 610 mg/mL

Q: What about the “API Solubility” value ([2]; with Kollidone/Tartaric acid, sample pH 2.1-2.4) of the same compound?
A: 661 mg/mL

Q: What about the “API Solubility” value ([2]; with Lactose, sample pH 5.2-5.5) of the same compound?
A: 665 mg/mL

Q: And the “API Solubility” value ([2]; with Malic acid, sample pH 1.5-2.0)?
A: 677 mg/mL

Q: What about the “API Solubility” value ([2]; with Maltrin M150/Xylitol/Sodium lauryl sulfate/Gelucire 44/14, sample pH 5.2-5.5) of the same compound?
A: 432 mg/mL

Q: What about the “API Solubility” value ([2]; with Maltrin M150, sample pH 5.2-5.5) of the same compound?
A: 565 mg/mL

Q: And the “API Solubility” value ([2]; with Mannitol/Sorbitol/Tartaric acid/Eudragit L100, sample pH <1.8)?
A: 521 mg/mL

Q: And the “API Solubility” value ([2]; with Mannitol, sample pH 5.2-5.5)?
A: 613 mg/mL

Q: And the “API Solubility” value ([2]; with Methocel E5, sample pH 5.7)?
A: 504 mg/mL

Q: And the “API Solubility” value ([2]; with Methylcyclodextrin, sample pH 5.5)?
A: 561 mg/mL

Q: And the “API Solubility” value ([2]; with PEG 3350, sample pH 5.2-5.5)?
A: 602 mg/mL

Q: And the “API Solubility” value ([2]; with PEG 8000, sample pH 5.2-5.5)?
A: 569 mg/mL

Q: What about the “API Solubility” value ([2]; with Poloxamer 188, sample pH 5.2-5.5) of the same compound?
A: 552 mg/mL

Q: What about the “API Solubility” value ([2]; with Sodium Docusate, sample pH 6.3-6.5) of the same compound?
A: 539 mg/mL

Q: And the “API Solubility” value ([2]; with Sodium lauryl sulfate, sample pH 6.3-6.6)?
A: 524 mg/mL

Q: What about the “API Solubility” value ([2]; with Sorbitol, sample pH 5.2-5.5) of the same compound?
A: 549 mg/mL

Q: What about the “API Solubility” value ([2]; with Tartaric acid, sample pH 1.5-2.0) of the same compound?
A: 719 mg/mL

Q: And the “API Solubility” value ([2]; with Triethyl citrate, sample pH 5.2-5.5)?
A: 643 mg/mL

Q: And the “API Solubility” value ([2]; with Tween 80, sample pH 5.2-5.5)?
A: 544 mg/mL

Q: What about the “API Solubility” value ([2]; with Vitamin E TPGS, sample pH 5.2-5.5) of the same compound?
A: 535 mg/mL

Q: What about the “API Solubility” value ([2]; with Xylitol, sample pH 5.2-5.5) of the same compound?
A: 547 mg/mL

From patent US20100209489A1, “Formulations of desvenlafaxine” (Supernus Pharmaceuticals, Inc., priority 2009, published 2010)
